Data as given in publication PMC5153397 (EJNMMI Research, 2016).
Like-named read-outs stand apart in the source and are kept apart here. Blank lines part the entries; values can stand above or below the substance they belong to.

Legend:
[1] = cited from earlier work
Text: Table 3 Absorbed kidney dose and effective dose of ^18F-labeled tracer and metal-labeled exendin PET and SPECT tracers | column: Kidney dose [mSv/MBq]; Effective dose [mSv/MBq]

[2] = biological target: T1, GLP1-R-rich areas of rat brain (Rattus norvegicus, UniProt P32301); settings: in vivo
T1 construct: We dissected a rat pancreas and brain and froze them immediately after dissection; from tissue; host or cells: rat brain (GLP-1R-rich areas): in vivo injection with ex vivo read-out, and frozen sections in vitro
T1 sequence (P32301 22-463): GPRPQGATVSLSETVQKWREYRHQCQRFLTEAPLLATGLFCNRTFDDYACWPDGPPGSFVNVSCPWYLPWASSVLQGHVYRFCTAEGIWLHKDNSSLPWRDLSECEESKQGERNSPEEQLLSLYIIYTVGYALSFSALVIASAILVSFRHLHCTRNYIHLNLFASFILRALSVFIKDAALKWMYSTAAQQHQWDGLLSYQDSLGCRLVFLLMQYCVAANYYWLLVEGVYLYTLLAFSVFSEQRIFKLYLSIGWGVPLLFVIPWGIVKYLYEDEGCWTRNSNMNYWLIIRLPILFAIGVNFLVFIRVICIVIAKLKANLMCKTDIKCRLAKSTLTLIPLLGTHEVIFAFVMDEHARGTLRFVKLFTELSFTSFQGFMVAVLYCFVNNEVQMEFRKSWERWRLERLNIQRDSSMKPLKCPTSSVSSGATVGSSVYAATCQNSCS
Description: The in vivo kinetics of [^18F]exendin-4 were evaluated with the Inveon Multimodality PET/CT scanner (Siemens, Knoxville, TN, USA). Rats were anesthetized with isoflurane/O2 and injected intravenously (i.v.) with [^18F]exendin-4 (radioactivity 23 ± 5 MBq/kg, mass 2 ± 1 μg/kg). PET scans were acquired for up to 6 h (dynamic 0–60 min; static 210–240 min and 330–360 min; N = 2–5 rats/scan). The data were reconstructed with the ordered subset expectation maximization OSEM2D algorithm. Analyses were performed with Inveon Research Workplace 3 software (Siemens), after defining the volumes of interest (VOIs) on selected tissues.
Rats were anesthetized with isoflurane/O2 and injected (i.v.) with [^18F]exendin-4 (radioactivity 23 ± 5 MBq/kg, mass 2 ± 1 μg/kg). […] Tissue radioactivity was measured with a γ-counter (Wizard, PerkinElmer, Turku, Finland). […] Measurements were corrected for radionuclide decay, and results were reported as the percentage of the injected dose of radioactivity per gram of tissue (%ID/g).
The kidney, pancreas, and brain were sectioned and exposed to imaging plates (Fuji BAS-TR2025; Fuji Photo Film Co., Tokyo, Japan) for approximately 4 h. Imaging plates were scanned with a BAS-5000 scanner (Fuji Photo Film Co.) and the images were analyzed with AIDA 4.5 software (Raytest, Isotopenmessgeräte, Straubenhardt, Germany). […] Finally, the islet-to-exocrine tissue ratio was calculated. […]

[3] = biological target: T2, GLP-1R in pancreatic islets (Rattus norvegicus, UniProt P32301); assay: In vitro binding in rat pancreas sections (autoradiography)
T2 construct: We dissected a rat pancreas and brain and froze them immediately after dissection; from tissue; host or cells: rat pancreas (islets): in vivo injection followed by ex vivo autoradiography, and frozen sections in vitro
T2 sequence (P32301 22-463): T1 sequence (P32301 22-463)
Description: (§1) We acquired a piece of human pancreas that was frozen immediately after surgery. We dissected a rat pancreas and brain and froze them immediately after dissection. Prior to incubations with ligand, the tissue sections of human and rat pancreas and GLP-1R-rich areas from rat brain [19] were incubated for 30 min with 1% BSA in PBS (pH 7.4). Then, sections were incubated for 60 min with various concentrations of [^18F]exendin-4 (range 2.5–20 nM) in vitro. To investigate tracer specificity, sections were incubated for 30 min with an excess of cold exendin-3 prior to adding [^18F]exendin-4. Sections were then washed and exposed to imaging plates, as described above (ex vivo autoradiography). Next, sections were stained and processed, as described above.

GLP-1R in the islets [4] = biological target: T3, GLP-1R in the islets (Rattus norvegicus, UniProt P32301); assay: Ex vivo autoradiography of rat pancreas; assay type: in vivo
T3 construct: We dissected a rat pancreas and brain and froze them immediately after dissection; from tissue; host or cells: rat pancreas (islets): in vivo injection followed by ex vivo autoradiography, and frozen sections in vitro
T3 sequence (P32301 22-463): T1 sequence (P32301 22-463)
Description: Rats were anesthetized with isoflurane/O2 and injected (i.v.) with [^18F]exendin-4 (radioactivity 23 ± 5 MBq/kg, mass 2 ± 1 μg/kg). After injection, animals were allowed to recover from the anesthesia (except animal sacrificed 15 min p.i.). We further investigated tracer distribution in the brain by injecting one rat with a highly radioactive dose (50 MBq) of [^18F]exendin-4. Animals were sacrificed at 15, 30, 60, 120, 240, and 360 min (N = 2–11 rats/time point). Blood was extracted, and selected organs were dissected and weighed. Tissue radioactivity was measured with a γ-counter (Wizard, PerkinElmer, Turku, Finland). Tracer specificity was tested by co-injecting radiolabeled exendin-4 with an excess of cold exendin-3 (3 mg/kg) (Peptide Specialty Laboratories GmbH). Measurements were corrected for radionuclide decay, and results were reported as the percentage of the injected dose of radioactivity per gram of tissue (%ID/g).
The kidney, pancreas, and brain were sectioned and exposed to imaging plates (Fuji BAS-TR2025; Fuji Photo Film Co., Tokyo, Japan) for approximately 4 h. Imaging plates were scanned with a BAS-5000 scanner (Fuji Photo Film Co.) and the images were analyzed with AIDA 4.5 software (Raytest, Isotopenmessgeräte, Straubenhardt, Germany). Three pancreatic sections per rat were analyzed (N = 2–8 rats/time point). We determined the mean density values (photostimulated luminescence per square millimeter, PSL/mm^2) of ten prominently labeled islets and of the exocrine tissue and corrected for background noise. Finally, the islet-to-exocrine tissue ratio was calculated. […] The pancreatic sections used for autoradiography were then stained with insulin antibody (1’ mouse-anti-insulin, Nordic Biosite, Täby, Sweden, 2’ MAHC1 mouse probe, Biocare Medical, Concord, CA, USA), counterstained with hematoxylin, and imaged with a Slide Scanner (Pannoramic 250 F, 3DHistech, Budapest, Hungary).

[5] = pig, in vivo
Description: In addition, the stability of [^18F]exendin-4 was determined in pig plasma. Prior to blood sampling, animals were anesthetized (midazolam 1 mg/kg, xylazine 4 mg/kg intramuscular), connected to a respirator, and ventilated mechanically. Anesthesia was maintained with an i.v. infusion of propofol (10–20 mg/kg/h) and fentanyl (4–8 μg/kg/h). Vital signs were monitored throughout the study. Pigs were injected (radioactivity 1.2 ± 0.2 MBq/kg, mass 0.14 ± 0.04 μg/kg) and blood was sampled at 5, 15, 30, 60, and 180 min p.i. (N = 3 samples/time point). Plasma was treated and analyzed as described above.

[6] = biological target: T4, GLP-1R-rich areas from rat brain (Rattus norvegicus, UniProt P32301); assay: In vitro binding in rat brain sections (autoradiography); settings: lateral septum, 1.25 nM (Fig. 7)
T4 construct: We dissected a rat pancreas and brain and froze them immediately after dissection; from tissue; host or cells: rat brain (GLP-1R-rich areas): in vivo injection with ex vivo read-out, and frozen sections in vitro
T4 sequence (P32301 22-463): T1 sequence (P32301 22-463)
Description: as §1, with “Then, sections were incubated for 60 min with various concentrations of [^18F]exendin-4 (range 2.5–20 nM) in vitro.” left out

GLP-1R in the islets [7] = biological target: T5, GLP-1R in the islets (Homo sapiens, UniProt P43220); assay: In vitro binding in human pancreas sections (autoradiography); settings: human pancreatic tissue sections
T5 construct: We acquired a piece of human pancreas that was frozen immediately after surgery; from tissue; host or cells: human pancreas, frozen surgical specimen, sections
T5 sequence (P43220 24-463): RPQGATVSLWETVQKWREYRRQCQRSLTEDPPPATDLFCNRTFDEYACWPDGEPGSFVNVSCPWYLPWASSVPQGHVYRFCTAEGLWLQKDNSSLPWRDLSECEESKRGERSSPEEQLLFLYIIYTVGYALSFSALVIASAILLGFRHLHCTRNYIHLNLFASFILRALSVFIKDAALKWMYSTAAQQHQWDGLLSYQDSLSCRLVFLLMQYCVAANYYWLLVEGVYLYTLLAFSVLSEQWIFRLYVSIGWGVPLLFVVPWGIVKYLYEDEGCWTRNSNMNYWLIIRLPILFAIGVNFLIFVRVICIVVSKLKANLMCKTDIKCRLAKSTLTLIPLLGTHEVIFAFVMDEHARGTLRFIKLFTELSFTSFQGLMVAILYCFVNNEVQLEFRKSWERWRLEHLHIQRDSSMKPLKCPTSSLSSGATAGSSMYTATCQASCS
Description: as §1

[8] = design: species or system human
Description: Absorbed doses were calculated with OLINDA/EXM1.0 software, which includes radionuclide information and a selection of human body phantoms. Rat ex vivo biodistributions were estimated by integrating the area under the time–activity curves. The obtained residence times were converted into corresponding human values by multiplying with organ-specific factors that scaled organs to body weights, as follows: (W TB,rat/W Organ,rat) × (W Organ,human/W TB,human), where W TB,rat and W TB,human are the total body weights of rats and humans (70-kg male), respectively; and W Organ,rat and W Organ,human are the organ weights of rats and humans (70-kg male), respectively.

[9] = design: method as in PMID 12629557; settings: rat; cited from earlier work

Substance: [^64Cu]NODAGA-exendin-4: metal-labeled exendin PET tracer, ref 3
Effective dose [1]: 0.074 mSv/MBq | Kidney dose [1]: 1.48 mSv/MBq

Substance: [^111In]DTPA-exendin-4: metal-labeled exendin SPECT tracer
Effective dose [1]: 0.155 mSv/MBq | Kidney dose [1]: 4.48 mSv/MBq

blood–brain barrier crossing [2]: did not cross the blood–brain barrier | islet labeling in vitro ([3]; 60 min incubation, 2.5 nM (Fig. 6), autoradiography): islet labeling was observed | islet labeling in vitro with blocking ([3]; excess of cold exendin-3 added): not detected | islet labeling with blocking (GLP-1R in the islets [4]; co-injected with excess cold exendin-3, ex vivo autoradiography): not visible | islet-to-exocrine tissue ratio (GLP-1R in the islets [4]; ex vivo autoradiography, PSL/mm^2 of ten islets vs exocrine tissue, N = 2–8 rats/time point): increased over time | tracer uptake in pancreatic islets (GLP-1R in the islets [4]; i.v., ex vivo autoradiography, 60 min p.i. (Fig. 5a), verified by insulin staining): tracer uptake was observed | body temperature after administration [5]: 41 °C | labeling of GLP-1R areas in brain in vitro [6]: clearly labeled | tracer binding in human pancreatic islets with blocking (GLP-1R in the islets [7]; excess cold exendin-3 added): no [^18F]exendin-4 binding was observed | tracer binding in human pancreatic islets (GLP-1R in the islets [7]; various concentrations (2.5–20 nM), 60 min, autoradiography, verified by insulin immunostaining): clearly visible | Effective dose [8]: 0.021 mSv/MBq | absorbed radiation dose, LLI (lower large intestine) wall [8]: 0.003 mSv/MBq | absorbed radiation dose, ULI (upper large intestine) wall [8]: 0.005 mSv/MBq | absorbed radiation dose, adrenal glands [8]: 0.016 mSv/MBq | absorbed radiation dose, brain [8]: 0.004 mSv/MBq | absorbed radiation dose, breasts [8]: 0.004 mSv/MBq | absorbed radiation dose, gallbladder wall [8]: 0.011 mSv/MBq | absorbed radiation dose, heart wall [8]: 0.010 mSv/MBq | absorbed radiation dose, liver [8]: 0.026 mSv/MBq | absorbed radiation dose, lungs [8]: 0.071 mSv/MBq | absorbed radiation dose, muscle [8]: 0.005 mSv/MBq | absorbed radiation dose, osteogenic cells [8]: 0.045 mSv/MBq | absorbed radiation dose, ovaries [8]: 0.003 mSv/MBq | absorbed radiation dose, pancreas [8]: 0.023 mSv/MBq | absorbed radiation dose, red bone marrow [8]: 0.009 mSv/MBq | absorbed radiation dose, skin [8]: 0.003 mSv/MBq | absorbed radiation dose, small intestine [8]: 0.005 mSv/MBq | absorbed radiation dose, spleen [8]: 0.022 mSv/MBq | absorbed radiation dose, stomach wall [8]: 0.007 mSv/MBq | absorbed radiation dose, testes [8]: 0.001 mSv/MBq | absorbed radiation dose, thymus [8]: 0.005 mSv/MBq | absorbed radiation dose, thyroid [8]: 0.003 mSv/MBq | absorbed radiation dose, total body [8]: 0.009 mSv/MBq | absorbed radiation dose, urinary bladder wall [8]: 0.002 mSv/MBq | absorbed radiation dose, uterus [8]: 0.003 mSv/MBq
Substance: ^18F-labeled [Nle^14,Lys^40]exendin-4 [[^18F]exendin-4]
arrhythmia after administration [5]: arrhythmia was observed | blood pressure after administration [5]: decreased | heart rate after administration [5]: 230–250 beats/min

Substance: exendin-4
blood–brain barrier crossing [9]: crossed the blood–brain barrier
